We go through 42 compounds from patent publication US4572908A, “Dihydropyridines” (Pfizer Inc., priority 1982, dated 1986).

The experiment relates to rat aorta. Kind of experiment: inhibition of calcium-induced contraction (change in tension) of spirally cut strips of rat aorta in K+ 45 mM saline. Conditions: 0.75 h, 45 millimolar potassium, 2 millimolar calcium, 45 minutes, read-out: IC50 (molar concentration required to reduce the response by 50%). Type of experiment: cell-based. Here is the method: The ability of the compounds to inhibit the movement of calcium into the cell is shown by their effectiveness in reducing the response of isolated heart tissue to an increase in calcium ion concentration in vitro. The test is performed by mounting spirally cut strips of rat aorta with one end fixed and the other attached to a force transducer. The tissue is immersed in a bath of physiological saline solution containing potassium ions at a concentration of 45 millimolar and no calcium. Calcium chloride is added to the bath with a pipette to give a final calcium ion concentration of 2 millimolar. The change in tension caused by the resulting contraction of the tissue is noted. The bath is drained and replaced with fresh saline solution and, after 45 minutes, the test is repeated with the particular compound under test present in the saline solution. The concentration of compound required to reduce the response by 50% (IC50) is recorded.
The molar concentrations of the compounds required to reduce the response by 50% in the test specified on pages 16-17 are given below (1M=1 gm.Mole/liter).
With `CCOC(=O)C1=C(COCCNc2nc(-c3ccccn3)cc(=O)[nH]2)NC(C)=C(C(=O)OC)C1c1cccc(Cl)c1Cl` (stereo not drawn) [Example 44], the IC50 is 15.8 nM. For the compound `CCOC(=O)C1=C(COCCNc2ccc(S(=O)(=O)N3CCOCC3)cn2)NC(C)=C(C(=O)OC)C1c1cccc(Cl)c1Cl` (stereo not drawn) [Example 45], the IC50 is 1.09 nM. As for `CCOC(=O)C1=C(COCCNc2ccc(S(=O)(=O)N3CCCCC3)cn2)NC(C)=C(C(=O)OC)C1c1cccc(Cl)c1Cl` (stereo not drawn) [Example 46], the figure is 3.01 nM. Consider `CCOC(=O)C1=C(COCCNc2ccc(S(=O)(=O)N(C)C)cn2)NC(C)=C(C(=O)OC)C1c1cccc(Cl)c1Cl` (stereo not drawn) [Example 47], for which the IC50 turned out to be 1.25 nM.

As to `CCOC(=O)C1=C(COCCNc2nc(N)c3cc(OC)c(OC)cc3n2)NC(C)=C(C(=O)OC)C1c1cccc(Cl)c1Cl` (stereo not drawn) [Example 48], the IC50 was determined as 29.5 nM.

With `CCOC(=O)C1=C(COCCNc2nc3ccccc3nc2Cl)NC(C)=C(C(=O)OC)C1c1cccc(Cl)c1Cl` (stereo not drawn) [Example 49], the IC50 turned out to be 3.98 nM. To `CCOC(=O)C1=C(COCCNc2c[n+]([O-])ccn2)NC(C)=C(C(=O)OC)C1c1cccc(Cl)c1Cl` (stereo not drawn) [Example 50, N-oxide of 4-(2,3-dichlorophenyl)-3-ethoxycarbonyl-5-methoxycarbonyl-6-methyl-2-[2-(pyrazin-2-ylamino)ethoxymethyl]-1,4-dihydropyridine] belongs 1.34 nM. For the compound `CCOC(=O)C1=C(COCCNc2nccnc2Cl)NC(C)=C(C(=O)OC)C1c1cccc(Cl)c1Cl` (stereo not drawn) [Example 51], the IC50 was found to be 2.51 nM. As for `CCOC(=O)C1=C(COCCNc2cncc(Cl)n2)NC(C)=C(C(=O)OC)C1c1cccc(Cl)c1Cl` (stereo not drawn) [Example 52], the figure is 6.02 nM; as for `CCOC(=O)C1=C(COCCNc2cc(Cl)ncn2)NC(C)=C(C(=O)OC)C1c1cccc(Cl)c1Cl` (stereo not drawn) [Example 53], 3160 nM. To `CCOC(=O)C1=C(COCCNc2cc(OC)ncn2)NC(C)=C(C(=O)OC)C1c1cccc(Cl)c1Cl` (stereo not drawn) [Example 54] belongs 1.2 nM; to `CCOC(=O)C1=C(COCCNc2nccc(=O)[nH]2)NC(C)=C(C(=O)OC)C1c1cccc(C(F)(F)F)c1Cl` (stereo not drawn) [Example 59], 3.72 nM. Take `CCOC(=O)C1=C(COCCNc2cc(=O)[nH]cn2)NC(C)=C(C(=O)OC)C1c1cccc(C(F)(F)F)c1Cl` (stereo not drawn) [Example 60]: the IC50 is 44.7 nM. As for `CCOC(=O)C1=C(COCCNc2nc(C)cc(=O)[nH]2)NC(C)=C(C(=O)OC)C1c1cccc(C(F)(F)F)c1Cl` (stereo not drawn) [Example 61], the figure is 2.24 nM. To `CCOC(=O)C1=C(COCCNc2cc[nH]c(=O)n2)NC(C)=C(C(=O)OC)C1c1cccc(C(F)(F)F)c1Cl` (stereo not drawn) [Example 62] belongs 1.35 nM; to `CCOC(=O)C1=C(COCCNc2ccc(C(N)=O)cn2)NC(C)=C(C(=O)OC)C1c1cccc(C(F)(F)F)c1Cl` (stereo not drawn) [Example 63], 2.95 nM; to `CCOC(=O)C1=C(COCCNc2n[s+]([O-])nc2OC)NC(C)=C(C(=O)OC)C1c1cccc(Cl)c1Cl` (stereo not drawn) [Example 64, 3-{2-[(4-{2,3-Dichlorophenyl}-3-ethoxycarbonyl-5-methoxycarbonyl-6-methyl-1,4-dihydropyrid-2-yl)methoxy]ethylamino}-4-methoxy-1,2,5-thiadiazole-1-oxid], 10 nM.

On to `CCOC(=O)C1=C(COCCNc2n[s+]([O-])nc2OC)NC(C)=C(C(=O)OC)C1c1ccccc1Cl` (stereo not drawn) [Example 65], for which the IC50 stood at 25.1 nM. With `CCOC(=O)C1=C(COCCNc2n[s+]([O-])nc2OC)NC(C)=C(C(=O)OC)C1c1cccc(C(F)(F)F)c1Cl` (stereo not drawn) [Example 66], the IC50 was determined as 2.24 nM. `CCOC(=O)C1=C(COCCNc2n[s+]([O-])nc2N)NC(C)=C(C(=O)OC)C1c1cccc(Cl)c1Cl` (stereo not drawn) [Example 67, 3-{2-[(4-{2,3-Dichlorophenyl}-3-ethoxycarbonyl-5-methoxycarbonyl-6-methyl-1,4-dihydropyrid-2-yl)methoxy]ethylamino}-4-amino-1,2,5-thiadiazole-1-oxide hemihydrate]: the IC50 came to 19.9 nM.

With `CCOC(=O)C1=C(COCCNc2n[s+]([O-])nc2N)NC(C)=C(C(=O)OC)C1c1ccccc1Cl` (stereo not drawn) [Example 68], the IC50 is 13.1 nM. To `CCOC(=O)C1=C(COCCNC2=NCCS2)NC(C)=C(C(=O)OC)C1c1ccccc1Cl` (stereo not drawn) [Example 70, 4-(2-Chlorophenyl)-3-ethoxycarbonyl-5-methoxycarbonyl-6-methyl-2-[2-(2-thiazolin-2-ylamino)ethoxymethyl]-1,4-dihydropyridine] belongs 9.33 nM; to `CCOC(=O)C1=C(COCCNc2nccs2)NC(C)=C(C(=O)OC)C1c1ccccc1Cl` (stereo not drawn) [Example 71, 4-(2-Chlorophenyl)-3-ethoxycarbonyl-5-methoxycarbonyl-6-methyl-2-[2-(thiazol-2-ylamino)ethoxymethyl]-1,4-dihydropyridine], 10 nM.

For the compound `CCOC(=O)C1=C(COCCNc2nc(C)cs2)NC(C)=C(C(=O)OC)C1c1ccccc1Cl` (stereo not drawn) [Example 72], the IC50 was 39.8 nM. As for `CCOC(=O)C1=C(COCCNc2nc(C(=O)OCC)cs2)NC(C)=C(C(=O)OC)C1c1ccccc1Cl` (stereo not drawn) [Example 73], the figure is 4.4 nM.

With `CCOC(=O)C1=C(COCCNC2=NC(=O)CS2)NC(C)=C(C(=O)OC)C1c1ccccc1Cl` (stereo not drawn) [Example 74], the IC50 is 20 nM. With `CCOC(=O)C1=C(COCCNC2=NC(=O)CS2)NC(C)=C(C(=O)OC)C1c1cccc(C(F)(F)F)c1Cl` (stereo not drawn) [Example 75], the IC50 was found to be 7.08 nM. As for `CCOC(=O)C1=C(COCCNc2nc(C(=O)NC)cs2)NC(C)=C(C(=O)OC)C1c1ccccc1Cl` (stereo not drawn) [Example 77, 4-(2-Chlorophenyl)-3-ethoxycarbonyl-5-methoxycarbonyl-6-methyl-2-[2-(4-[N-methylcarbamoyl]-thiazol-2-ylamino)ethoxymethyl]-1,4-dihydropyridine], the figure is 5.37 nM. To `CCOC(=O)C1=C(COCCNc2noc(=O)[nH]2)NC(C)=C(C(=O)OC)C1c1cccc(Cl)c1Cl` (stereo not drawn) [Example 78, 2-[2-(4,5-Dihydro-5-oxo-1,2,4-oxadiazol-3-ylamino)ethoxymethyl]-4-(2,3-dichlorophenyl)-3-ethoxycarbonyl-5-methoxycarbonyl-6-methyl-1,4-dihydropyridinemonohydrate] belongs 2.29 nM; to `CCOC(=O)C1=C(COCCNc2nc(NC(=O)NC)n(C)n2)NC(C)=C(C(=O)OC)C1c1ccccc1Cl` (stereo not drawn) [Example 79, hydrate], 6.6 nM; to `CCOC(=O)C1=C(COCCNc2cc(N3CCOCC3)ncn2)NC(C)=C(C(=O)OC)C1c1cccc(Cl)c1Cl` (stereo not drawn) [Example 80, 4-(2,3-Dichlorophenyl)-3-ethoxycarbonyl-5-methoxycarbonyl-6-methyl-[2-(6-morpholinopyrimidin-4-ylamino)ethoxymethyl]-1,4-dihydropyridine], 1.34 nM. Regarding `CCOC(=O)C1=C(COCCNc2cc(N3CCN(C)CC3)ncn2)NC(C)=C(C(=O)OC)C1c1cccc(Cl)c1Cl` (stereo not drawn) [Example 81], the IC50 stood at 3.16 nM. As for `CCOC(=O)C1=C(COCCNc2cc(N3CCCCC3)ncn2)NC(C)=C(C(=O)OC)C1c1cccc(Cl)c1Cl` (stereo not drawn) [Example 82], the figure is 4.07 nM; as for `CCOC(=O)C1=C(COCCNc2cc(NC)ncn2)NC(C)=C(C(=O)OC)C1c1cccc(Cl)c1Cl` (stereo not drawn) [Example 83], 3.16 nM; as for `CCOC(=O)C1=C(COCCNc2nccnc2NC)NC(C)=C(C(=O)OC)C1c1cccc(Cl)c1Cl` (stereo not drawn) [Example 84], 5.01 nM. To `CCOC(=O)C1=C(COCCNc2cc(N3CCCCC3)ncn2)NC(C)=C(C(=O)OC)C1c1ccccc1Cl` (stereo not drawn) [Example 85] belongs 5.01 nM; to `CCOC(=O)C1=C(COCCNc2cc(N3CCOCC3)ncn2)NC(C)=C(C(=O)OC)C1c1ccccc1Cl` (stereo not drawn) [Example 86], 1.58 nM; to `CCOC(=O)C1=C(COCCNc2nccnc2N2CCOCC2)NC(C)=C(C(=O)OC)C1c1ccccc1Cl` (stereo not drawn) [Example 87], 100 nM.

Take `CCOC(=O)C1=C(COCCNc2cc(N3CCOCC3)ncn2)NC(C)=C(C(=O)OC)C1c1cccc(C(F)(F)F)c1Cl` (stereo not drawn) [Example 88, 4-(2-Chloro-3-trifluoromethylphenyl)-3-ethoxycarbonyl-5-methoxycarbonyl-6-methyl-[2-(6-morpholino-pyrimidin-4-ylamino)ethoxymethyl]-1,4-dihydropyridin]: the IC50 is 0.126 nM. To `CCOC(=O)C1=C(COCCNc2cnccn2)NC(C)=C(C(=O)OC)C1c1cccc(Cl)c1Cl` (stereo not drawn) [Example 89, 4-(2,3-Dichlorophenyl)-3-ethoxycarbonyl-5-methoxycarbonyl-6-methyl-2-[2-(pyrazin-2-ylamino)ethoxymethyl]-1,4-dihydropyridine] belongs 0.501 nM; to `CCOC(=O)C1=C(COCCNc2n[nH]c(O)n2)NC(C)=C(C(=O)OC)C1c1cccc(Cl)c1Cl` (stereo not drawn) [Example 90B, 4-(2,3-Dichlorophenyl)-3-ethoxycarbonyl-2-[2-(5-hydroxy-1H-1,2,4-triazol-3-ylamino)ethoxymethyl]-5-methoxycarbonyl-6-methyl-1,4-dihydropyridine hydrate], 10 nM. Take `CCOC(=O)C1=C(COCCNc2ncc(O)c(C)n2)NC(C)=C(C(=O)OC)C1c1cccc(Cl)c1Cl` (stereo not drawn) [Example 91A, 4-(2,3-dichlorophenyl)-3-ethoxycarbonyl-2-[2-(5-hydroxy-4-methylpyrimidin-2-ylamino)ethoxymethyl]-5-methoxycarbonyl-6-methyl-1,4-dihydropyridine]: the IC50 was 1 nM.
